Data published in US12662473B2, “Inhibitors for programmed cell necrosis and preparation method therefor and use thereof” (SHANGHAI INSTITUTE OF ORGANIC CHEMISTRY, CHINESE ACADEMY OF …, priority 2019, dated 2026).
Like-named read-outs stand apart in the source and are kept apart here.

Assays:
FADD−/− Jurkat cells = assay: TNF-induced programmed cell necrosis inhibition, Cell Titer-Glo viability; assay type: cell-based; settings: Homo sapiens, Jurkat
Method in brief: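 FADD-deficient Jurkat cells (2.5×10^5/mL) were pretreated 1 h at 37 °C with compound plus Smac (50 nM as added), then stimulated with TNFα (50 ng/mL as added) for 14 h at 37 °C, 5% CO2. Viability was measured as ATP by CellTiter-Glo luminescence, with unstimulated DMSO wells as 100%. EC50 values were derived.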

L929 cells = assay: as above; assay type: cell-based, mouse; settings: Mus musculus, read-out: EC50 inhibitory activity on programmed cell necrosis
Method in brief: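 EC50 values come from CellTiter-Glo luminescence (cellular ATP), normalised to unstimulated DMSO wells as 100% viability. Mouse L929 fibroblasts had 1 h compound-plus-Smac pretreatment at 37 °C (Smac added as 500 nM solution), followed by 14 h TNFα challenge (added as 500 ng/mL solution).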

RIPK1 (S161E) = assay: Effect of RIPK1 S161E mutation on compound activity (S161E MEFs western blot and cell death with TNFα and 5z7); assay type: cell-based, mouse; settings: FIG. 6
Experimental: The biological test protocol used in this experiment was to test the effect of serine mutation at position 161 of RIPK1 to glutamic acid on the activity of the compound. The experiment was verified by two aspects. On the one hand, the mouse-derived MEFs cells in which RIPK1 (S161E) was put back after knocking out RIPK1 were treated with the compound of the present invention, and the phosphorylation state of RIPK1 was detected by western-blot; on the other hand, whether the compounds of the present invention have inhibitory effect on RIPK1-dependent apoptosis in the above-mentioned S161E cells was detected.
1. S161E MEFs cells were digested, and then diluted to 1.5×10^5/ml, and the cells were seeded into 6-well plates with 2 ml per well. The plate was placed in a cell incubator (37° C., 5% CO2) for 12 hours. 0.4 μL of compound 4-8 (50 mM in DMSO) or 0.4 μL of Nec-1s (50 μM in DMSO) was added to the wells respectively, 0.4 μL of DMSO was added to the control group. […] The BCA protein quantification kit was used to detect the protein content of each group, and PIPA lysis buffer was used to adjust the protein amount to make the final volume of 100 μL. […] The cells were incubated at room temperature for 30 min, and the luminescence value was detected to measure the level of intracellular ATP. […]

[1] = 14 h, TNFa + SM164, read-out: EC50 inhibitory activity on programmed cell necrosis
[2] = TNFa, read-out: EC50 inhibitory activity on programmed cell necrosis
[3] = L929, 14 h, L929 cells (mouse), TNFa + SM164

| Structure (SMILES) | EC50 (FADD−/− Jurkat cells; [1]) | EC50 (FADD−/− Jurkat cells; [2]) | EC50 (L929 cells; [3]) | EC50 (L929 cells; L929, L929 cells (mouse), TNFa) | inhibition of programmed cell necrosis after mutation of serine 161 of RIPK1 to glutamic acid (RIPK1 (S161E)) |
| --- | --- | --- | --- | --- | --- |
| Cc1ccc(C2CCCN2C(=O)C(C)(C)Oc2ccc(Cl)cc2)cc1 (stereo not drawn) [QY-4-8] | 568 nM | 91 nM | 139 nM | 50 nM | can still inhibit the programmed cells necrosis |
| [2H]c1c([2H])c([C@]2([2H])CCCN2C(=O)C(C)(C)Oc2ccc(C#N)cc2OC)c([2H])c([2H])c1C([2H])([2H])[2H] [QY-12-14] | 45.3 nM | 3.65 nM | 7.63 nM | 3.16 nM | – |
| Cn1cnc2ccc(OC(C)(C)C(=O)N3CCCC3c3ccc(Cl)cc3)cc21 (stereo not drawn) [QY-12-32] | 2420 nM | 535 nM | 1160 nM | 243 nM | – |
| Cc1ccc(C2CCCN2C(=O)C(C)(C)Oc2ccc(Cl)cn2)cc1 (stereo not drawn) [QY-13-42] | 4900 nM | 0.0395 nM | 322 nM | 102 nM | – |
| Cc1ccc(C2CCCN2C(=O)C(C)(C)Oc2ccc(C#N)cn2)cc1 (stereo not drawn) [QY-13-68] | 2420 nM | 27 nM | 4.52 nM | 2.06 nM | – |
| Cc1ccc(C2CCCN2C(=O)C(C)(C)Oc2ncc(Cl)cn2)cc1 (stereo not drawn) [QY-13-70] | > 10000 nM | 477 nM | 1930 nM | 221 nM | – |
| Cc1ccc(C2CCCN2C(=O)C(C)(C)Nc2ncc(Cl)cn2)cc1 (stereo not drawn) [QY-13-86] | > 10000 nM | > 10000 nM | > 10000 nM | > 10000 nM | – |
| Cc1ccc(C2CCCN2C(=O)C(C)(C)C(=O)N2CCC(C)CC2)cc1 (stereo not drawn) [QY-14-8] | > 10000 nM | > 10000 nM | > 10000 nM | > 10000 nM | – |
| Cc1ccc(C2CCCN2C(=O)C(C)(C)C(=O)N2CCN(C)CC2)cc1 (stereo not drawn) [QY-14-9] | > 10000 nM | > 10000 nM | > 10000 nM | > 10000 nM | – |
| Cc1ccc(C2CCCN2C(=O)C(C)(C)Oc2cccc(C(N)=O)c2)cc1 (stereo not drawn) [QY-14-17] | > 10000 nM | > 10000 nM | > 10000 nM | > 10000 nM | – |
| Cc1ccc(C2CCCN2C(=O)C(C)(C)Oc2cccc(C#N)c2)cc1 (stereo not drawn) [QY-14-24] | 939 nM | 21.9 nM | 66 nM | 15.4 nM | – |
| CNC(=O)c1cccc(OC(C)(C)C(=O)N2CCCC2c2ccc(C)cc2)c1 (stereo not drawn) [QY-14-25] | > 10000 nM | > 10000 nM | > 10000 nM | > 10000 nM | – |
| Cc1ccc(C2CCCN2C(=O)C(C)(C)Oc2cc(C(N)=O)ncn2)cc1 (stereo not drawn) [QY-14-27] | > 10000 nM | > 10000 nM | > 10000 nM | 8450 nM | – |
| Cc1ccc(C2CCCN2C(=O)C(C)(C)C(=O)N2CCCC2)cc1 (stereo not drawn) [QY-14-29] | > 10000 nM | > 10000 nM | > 10000 nM | > 10000 nM | – |
| Cc1ccc(C2CCCN2C(=O)C(C)(C)C(=O)n2cccn2)cc1 (stereo not drawn) [QY-14-30] | > 10000 nM | > 10000 nM | > 10000 nM | 4890 nM | – |
| Cc1ccc(C2CCCN2C(=O)C(C)(C)C(=O)N2CCNC(=O)C2)cc1 (stereo not drawn) [QY-14-31] | > 10000 nM | > 10000 nM | > 10000 nM | > 10000 nM | – |
| Cc1ccc(C2CCCN2C(=O)C(C)(C)C(=O)N2CCNCC2)cc1 (stereo not drawn) [QY-14-33] | > 10000 nM | > 10000 nM | > 10000 nM | > 10000 nM | – |
| Cc1ccc(C2CCCN2C(=O)C(C)(C)Oc2ccc(C(N)=O)cc2)cc1 (stereo not drawn) [QY-14-34] | > 10000 nM | 2360 nM | > 10000 nM | 816 nM | – |
| Cc1ccc(C2CCCN2C(=O)C(C)(C)Oc2cc(C#N)ncn2)cc1 (stereo not drawn) [QY-14-35] | > 10000 nM | > 10000 nM | > 10000 nM | > 10000 nM | – |
| COc1cc(Cl)ccc1OC(C)(C)C(=O)N1N=CCC1c1cncc(F)c1 (stereo not drawn) [QY-14-40] | > 10000 nM | > 10000 nM | > 10000 nM | > 10000 nM | – |
| Cc1ccc(C2CCCN2C(=O)C(C)(C)C(=O)N2CCCCC2)cc1 (stereo not drawn) [QY-14-44] | > 10000 nM | > 10000 nM | > 10000 nM | > 10000 nM | – |
| Cc1ccc(C2CCCN2C(=O)C(C)(C)Oc2ccc(C#N)c(C#N)c2)cc1 (stereo not drawn) [QY-14-59] | > 10000 nM | 4570 nM | > 10000 nM | 467 nM | – |
| Cc1ccc(C2CCCN2C(=O)C(C)(C)Oc2ccc(Cl)c(C#N)c2)cc1 (stereo not drawn) [QY-14-60] | 1620 nM | 283 nM | 497 nM | 141 nM | – |
| C#Cc1ccc(OC(C)(C)C(=O)N2CCCC2c2ccc(C)cc2)cc1 (stereo not drawn) [QY-14-68] | 180 nM | 17.2 nM | 102 nM | 21 nM | – |
| Cc1ccc(C2CCCN2C(=O)C(C)(C)Oc2ccc(C#CC(C)(C)O)cc2)cc1 (stereo not drawn) [QY-15-11] | > 10000 nM | > 10000 nM | > 10000 nM | 2840 nM | – |
| Cc1ccc(C2CCCN2C(=O)C(C)(C)Oc2ccc(C#Cc3cccnc3)cc2)cc1 (stereo not drawn) [QY-15-12] | > 10000 nM | > 10000 nM | > 10000 nM | 5160 nM | – |
| Cc1ccc(C2CCCN2C(=O)C(C)(C)Oc2ccc(C#CC3CCNCC3)cc2)cc1 (stereo not drawn) [QY-15-31] | > 10000 nM | 818 nM | > 10000 nM | 82.4 nM | – |
| [2H]C([2H])([2H])c1ccc(C2CCCN2C(=O)C(C)(C)Oc2ccc(Cl)cc2F)cc1 (stereo not drawn) [XHJ-3-22] | 1460 nM | – | 302 nM | 40 nM | – |
| CC(C)(Oc1ccc(Cl)cc1F)C(=O)N1N=CCC1c1ccccc1 (stereo not drawn) [ZSQ13-56, 2-(4-Chloro-2-fluorophenoxy)-2-methyl-1-(5-phenyl-4,5-dihydro-1H-pyrazol-1-yl)propan-1-one] | 424 nM | 49 nM | 201 nM | 28 nM | – |
| CC(C)(Oc1ccc(Cl)cc1F)C(=O)N1N=CCC1c1ccc(F)cc1 (stereo not drawn) [ZSQ13-57] | 370 nM | 26 nM | 112 nM | 10 nM | – |
